Legend:
[1] = Drug conversion assessed as formation of oxazole derivatives in presence of Zn/HOAc; assay type: physicochemical
[2] = tested on: Salmonella typhimurium; assay: Mutagenicity in Salmonella typhimurium TA100; assay type: toxicity, organism-based; settings: salmonella enterica subsp. enterica serovar typhimurium

## COc1cccc2c1cc([N+](=O)[O-])c1c(C(=O)O)cc3c(c12)OCO3 [ARISTOLOCHIC ACID]
[1]
  Drug metabolism: Active
[2]
  Activity: Toxic

— ChEMBL document CHEMBL2069234, “Aristoxazole analogues. Conversion of 8-nitro-1-naphthoic acid to 2-methylnaphtho[1,2-d]oxazole-9-carboxylic acid: comments on the chemical mechanism of formation of DNA adducts by the aristolochic acids” (J Nat Prod, 2012)
